One test addresses T1, M.SssI (Spiroplasma monobiae, UniProt P15840).
T1 construct: purchased NEB (New England Biolabs, Inc., Ipswich, MA, USA)
The test can be described thus: smFRET B-Z transition-based DNA methylation (DMT inhibition) assay with M.SssI, UM core substrate. Type of test: biochemical. On the procedure:
(§1) Here we define the degree of inhibition as: DOI=P(Z;DMT)−P(Z;DMT+drug)/P(Z;DMT)−P(Z;0) where P(Z;0) is the population of Z-DNA without any treatment (neither DMT nor inhibitor drug), P(Z;DMT) the Z-DNA population after incubation with DMT, and P(Z;DMT+drug) the Z-DNA population after incubation with DMT together with an inhibitor drug. […] On the opposite limit, the inhibition would be complete (DOI = 1) if P(Z;DMT+drug) completely reduces to the level of P(Z;0) . We employed the UM and HM molecules as substrates for M.SssI and DNMT1, respectively. We used 50 mM Mg^2+ and applied 80 U/mL M.SssI or 100 U/mL DNMT1. […] To check this possibility, we reduced SAM to 10 μM and repeated the inhibitor assay.
(§2) DMTs can change cytosine to methylcytosine by converting SAM to SAH (S-adenosyl homocysteine). In the inhibitor-free assay, we added reagents to water (or 0, 1.75, and 2.5% DMSO in water in control reactions for inhibitor assays) in the following order: SAM, 10× buffer, DNA, and M.SssI or DNMT1. In the DNMT1 assay, the reaction mixture of 20 μL contained 25 nM DNA duplex and 20~400 U/mL (in the inhibitor-free assays) or 100 U/mL (in the inhibitor assays) DNMT1 in the reaction buffer (160 μM SAM and 100 μg/mL BSA in 1× DNMT1 buffer (200 mM NaCl, 50 mM Tris-HCl, 1 mM EDTA, 1 mM DTT, 50% glycerol, pH 7.5)). In the M.SssI assay, the reaction mixture of 20 μL contained 25 nM DNA duplex and 10~200 U/mL (in the inhibitor-free assays) or 80 U/mL (in the inhibitor assays) M.SssI in the reaction buffer (160 μM SAM in 1× NEB buffer 2 (50 mM NaCl, 10 mM Tris-HCl, 10 mM MgCl2, 1 mM DTT, pH 7.9)). The effect of DMSO itself was tested because it was used in a solvent for DMT inhibitors. […] The mixture was incubated at 37 °C. After various lengths of incubation time (typically 2 h), the methylation reaction was stopped by heat inactivation of the enzymes at 65 °C for 20 min and the reaction mixtures were stored at −20 °C until the future experiments with the smFRET technique.
In the DMT inhibition assays, DMT inhibitors at various concentrations were added together with either M.SssI or DNMT1 when the enzyme was added to the reaction tube (Figure 4A). The reaction and analysis were performed identically except for the addition of inhibitors. […] In these assays, we varied the concentrations of the reagents (proteins or inhibitors) or incubation times. […]

Test [1] addresses T2, human DNA methyltransferase 1 (DNMT1) (Homo sapiens, UniProt P26358).
T2 construct: purchased NEB (New England Biolabs, Inc., Ipswich, MA, USA)
Put plainly: smFRET B-Z transition-based DNA methylation (DMT inhibition) assay with DNMT1, HM core substrate. Type of test: biochemical. The note with it: 100 U/mL DNMT1, HM core, 160 μM SAM, 50 mM Mg2+, 2-h incubation; read-out: IC50 (degree of inhibition of DNMT1 methylation activity). The method, then: as §1
as §2, with “technique. […]” for “technique.”

Molecules are shown by their SMILES. pIC50: −log10 of the molar value. Entries after “also recorded” stand apart in the source; their conditions may differ. Read-outs that look alike come from different tables or passages of the source.

As a reminder, the pIC50 is −log10 of the IC50, conventionally taken in molar units.

T1 sequence (P15840 whole entry): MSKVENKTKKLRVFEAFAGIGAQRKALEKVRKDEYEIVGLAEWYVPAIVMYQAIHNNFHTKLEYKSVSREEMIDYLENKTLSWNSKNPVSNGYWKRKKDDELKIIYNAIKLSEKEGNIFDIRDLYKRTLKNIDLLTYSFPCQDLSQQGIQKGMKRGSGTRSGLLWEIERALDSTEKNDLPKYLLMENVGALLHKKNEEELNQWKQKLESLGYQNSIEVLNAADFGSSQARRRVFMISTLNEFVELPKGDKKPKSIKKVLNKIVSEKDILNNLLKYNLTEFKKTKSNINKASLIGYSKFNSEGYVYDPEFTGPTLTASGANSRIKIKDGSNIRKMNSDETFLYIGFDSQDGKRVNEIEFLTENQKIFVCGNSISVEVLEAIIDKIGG
T2 sequence (P26358 whole entry): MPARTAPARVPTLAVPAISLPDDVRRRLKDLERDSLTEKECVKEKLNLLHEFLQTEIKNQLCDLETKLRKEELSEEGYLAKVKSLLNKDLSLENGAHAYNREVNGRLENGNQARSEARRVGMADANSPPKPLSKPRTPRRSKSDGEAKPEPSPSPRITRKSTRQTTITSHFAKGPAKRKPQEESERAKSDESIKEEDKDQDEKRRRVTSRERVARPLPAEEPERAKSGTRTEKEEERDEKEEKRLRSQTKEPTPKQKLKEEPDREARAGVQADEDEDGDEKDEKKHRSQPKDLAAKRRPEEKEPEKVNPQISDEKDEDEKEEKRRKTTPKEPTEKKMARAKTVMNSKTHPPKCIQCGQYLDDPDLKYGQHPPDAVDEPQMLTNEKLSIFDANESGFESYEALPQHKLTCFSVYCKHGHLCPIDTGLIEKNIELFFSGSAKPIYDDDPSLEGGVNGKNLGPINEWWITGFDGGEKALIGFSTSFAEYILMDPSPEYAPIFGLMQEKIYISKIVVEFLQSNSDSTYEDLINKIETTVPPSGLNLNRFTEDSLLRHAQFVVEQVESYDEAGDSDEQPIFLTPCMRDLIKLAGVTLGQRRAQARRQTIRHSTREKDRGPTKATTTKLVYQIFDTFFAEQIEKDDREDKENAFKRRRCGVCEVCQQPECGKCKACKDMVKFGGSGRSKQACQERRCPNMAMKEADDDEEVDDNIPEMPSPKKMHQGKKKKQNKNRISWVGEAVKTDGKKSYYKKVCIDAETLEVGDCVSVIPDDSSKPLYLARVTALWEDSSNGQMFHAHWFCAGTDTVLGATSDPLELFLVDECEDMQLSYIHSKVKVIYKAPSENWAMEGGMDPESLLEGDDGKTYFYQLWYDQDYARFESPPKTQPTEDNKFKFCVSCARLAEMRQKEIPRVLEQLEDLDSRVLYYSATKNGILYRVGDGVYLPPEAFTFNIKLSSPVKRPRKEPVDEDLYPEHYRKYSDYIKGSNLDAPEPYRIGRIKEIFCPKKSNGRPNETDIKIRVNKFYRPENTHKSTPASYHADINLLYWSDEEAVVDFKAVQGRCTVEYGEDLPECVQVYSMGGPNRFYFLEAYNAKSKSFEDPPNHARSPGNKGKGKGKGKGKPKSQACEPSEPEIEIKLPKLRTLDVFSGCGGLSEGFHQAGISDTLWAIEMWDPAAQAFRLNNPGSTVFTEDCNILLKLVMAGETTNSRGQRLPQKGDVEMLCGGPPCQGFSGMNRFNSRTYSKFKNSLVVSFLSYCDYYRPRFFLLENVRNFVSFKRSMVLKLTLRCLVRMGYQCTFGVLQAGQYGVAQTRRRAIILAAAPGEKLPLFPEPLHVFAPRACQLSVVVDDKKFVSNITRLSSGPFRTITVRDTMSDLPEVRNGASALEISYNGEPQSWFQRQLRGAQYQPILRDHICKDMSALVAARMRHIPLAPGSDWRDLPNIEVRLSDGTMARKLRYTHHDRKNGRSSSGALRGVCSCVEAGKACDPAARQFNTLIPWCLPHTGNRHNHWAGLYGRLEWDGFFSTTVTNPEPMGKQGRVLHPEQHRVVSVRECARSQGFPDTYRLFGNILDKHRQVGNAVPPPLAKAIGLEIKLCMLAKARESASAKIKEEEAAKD

In the case of `C[S+](C)[O-]` [DMSO], at M.SssI ([DMSO] up to 5 %, [M.SssI] = 80 U/ml, 50 mM Mg2+, Figure S1), the “Effect of [DMSO] on DNA methylation activity of M.SssI” value is “remains unchanged; also recorded: negligible effect”. In the case of `O=C(O[C@@H]1Cc2c(O)cc(O)cc2O[C@@H]1c1cc(O)c(O)c(O)c1)c1cc(O)c(O)c(O)c1` [EGCG, epigallocatechin gallate], the negative logarithm of the IC50 (pIC50) on M.SssI (80 U/mL M.SssI, UM core, 160 μM SAM, 50 mM Mg2+, 2-h incubation, read-out: IC50 (degree of inhibition of M.SssI methylation activity)) is about 4.10; at M.SssI ([SAM] = 10 μM, M.SssI, Figure S8, read-out: IC50 (degree of inhibition of M.SssI methylation activity) with low [SAM]), over 5.30; in test [1], about 4.00. `COc1cc(/C=C/C(=O)CC(=O)/C=C/c2ccc(O)c(OC)c2)ccc1O` [curcumin]: the pIC50 in test [1] was about 5.89. Take `O=c1c(-c2ccc(O)cc2)coc2cc(O)cc(O)c12` [genistein]: the negative logarithm of the IC50 (pIC50) against M.SssI (IC50 (degree of inhibition of M.SssI methylation activity), 80 U/mL M.SssI, UM core, 160 μM SAM, 50 mM Mg2+, 2-h incubation) was about 3.22; in test [1], about 3.40.

The record behind these values is publication PMC8585049, “Z-DNA as a Tool for Nuclease-Free DNA Methyltransferase Assay” (International Journal of Molecular Sciences, 2021).
